Assay results taken from patent publication US20060228395A1, “Vitamin E phosphate/phosphatidylcholine liposomes to protect from or ameliorate cell damage” (priority 2005, published 2006).

Assays:
[1] = test system: male albino mice; test: Allyl alcohol-induced liver injury in male albino mice (SGPT); format: in vivo; details: allyl alcohol alone, single intraperitoneal dose 50 mg/kg, 4 hours; ± SEM
Description: Influence of vitamin E phosphate/phosphatidylcholine liposomes (see example 1) on Allyl alcohol-induced liver injury was evaluated in male albino mice.

[2] = test system: Liver cells; test: Incorporation of labeled choline into phosphatidylcholine (PC biosynthesis) by liver cells with iron; format: cell-based; details: SEM
Source text: The study of effects oil liver cells was also considered based on evaluation of effect on increase in the incorporation of labeled choline into phosphatidylcholine (phosphatidylcholine biosynthesis) by liver cells. Vitamin E phosphate/phosphatidylcholine produced greater beneficial effects than either vitamin E phosphate or phosphatidylcholine.

[3] = test system: isolated liver cells (1000×g cell fraction); test: Iron-dependent liver cell lipid peroxidation (LCLP); format: cell-based; details: SEM
[4] = test system: Liver cells; test: Phosphatidylcholine formation in liver cells dysfunctional due to ethanol exposure; format: cell-based
Description: Liver cells which had become dysfunctional due to exposure to ethanol were incubated 24 hours with vitamin E phosphate/phosphatidylcholine liposomes. The pmoles of phosphatidylcholine formed per minute/mg protein was then measured with the following results: […]

[5] = test system: cultured liver cells; test: Reversal of ethanol damage in cultured liver cells (phosphatidylcholine biosynthesis); format: cell-based; details: 96 h, ± SEM
Description: The use of vitamin E phosphate/phosphatidylcholine to effect reversal of damage from ethanol on liver cells was then studied. The cultured liver cells were incubated with 25 mM or 50 mM ethanol for 96 hours, at which time there is significant reduction in liver cell function (phosphatidylcholine biosynthesis). The effect of adding vitamin E phosphate/phosphatidylcholine after 72 hours was studied, and 24 hours later (96 hours after initial exposure to ethanol) values were obtained.

[6] = 1 mM iron plus addition: PC 100 μM, VEP 50 μm, or combination VEP/PC

`C=CCO` [Allyl alcohol] was tested, and the SGPT [1] was 330 ± 15 % of control.
In the case of `Cc1c(C)c2c(c(C)c1OP(=O)(O)O)CCC(C)(CCCC(C)CCCC(C)CCCC(C)C)O2` (centres unmarked) [VEP, vitamin E phosphate], the PC biosynthesis [2, 6] is reported as 145 ± 4 % control and the “LCLP (liver cell lipid peroxidation)” value [3, 6] is reported as 167 ± 3 % control.
For `CCO` [ethanol], the phosphatidylcholine formed ([4]; cells exposed to ethanol (control 75)) was 25 pmoles per minute/mg protein, the phosphatidylcholine formed ([4]; cells exposed to ethanol, then incubated 24 hours in water) was 27 pmoles per minute/mg protein and the “liver cell function (phosphatidylcholine biosynthesis)” value ([5]; 25 mM ethanol alone) was 38 ± 2 % control. For the same compound, the “liver cell function (phosphatidylcholine biosynthesis)” value ([5]; 50 mM ethanol alone) was 22 ± 1 % control.
With `[Fe]` [iron] the PC biosynthesis ([2]; 1 mM iron alone) was 254 ± 9 % control and the “LCLP (liver cell lipid peroxidation)” value ([3]; 1 mM iron alone) was 357 ± 12 % control.
In the case of phosphatidylcholine [PC], the PC biosynthesis [2, 6] is reported as 167 ± 4 % control and the “LCLP (liver cell lipid peroxidation)” value [3, 6] is reported as 281 ± 4 % control.
